Reference: US4472401A, “Pyrimido-quinoxalines having antiallergic properties” (Roussel Uclaf, priority 1981, dated 1984)

Tested on: passive cutaneous reaction mediated by Ig G antibodies
Assay: Passive cutaneous anaphylaxis in the rat (PCR), Ig G mediated, inhibition after oral administration
Format: in vivo
Conditions: male Wistar rats
Method: Passive cutaneous anaphylaxis in the rat (PCR)
Passive cataneous anaphylaxis in the rat was carried out in male Wistar rats weighing 180-200 g sensitized by intradermal injection into four sites on shaved backs so as to produce a passive cutaneous reaction mediated by Ig G antibodies (a 4 hour sensitization following injection of antiserum heated at 56° C. for one hour). Antigen challenge was carried out in the same way; 1 mg of ovalbumen together with 0.5 ml of 1% Evans blue dye solution was injected intravenously and 30 minutes later, the animals were killed and the severity and area of each blue spot was scored when viewed from the reverse side of the skin.

SMILES | inhibition in vivo at 1 mg/kg | inhibition in vivo at 10 mg/kg | inhibition in vivo at 0.1 mg/kg
CCOC(=O)c1cnc2n(c1=O)-c1ccccc1NC2 [Example 1, Ethyl 5,6-dihydro-1-oxo-1H-pyrimido [1,2-a] quinoxaline-2-carboxylate] | 23% | 51% | –
CCOC(=O)c1cnc2n(c1=O)-c1ccccc1N(C(=O)OCC)C2 [Example 2, Diethyl 5,6-dihydro-1-oxo-1H-pyrimido [1,2-a] quinoxaline-2,6-dicarboxylate] | 31% | 34.9% | –
CCOC(=O)c1cnc2n(c1=O)-c1ccccc1N(C(C)=O)C2 [Example 3, Ethyl 6-acetyl-5,6-dihydro-1-oxo-1H-pyrimido [1,2-a] quinoxaline-2-carboxylate] | 18.5% | 33.3% | –
CCOC(=O)c1cnc2n(c1=O)-c1ccccc1N(C(=O)C(C)C)C2 [Example 4] | 16% | 8.9% | 4.1%
CCOC(=O)c1cnc2n(c1=O)-c1ccccc1N(C(=O)C1CC1)C2 [Example 5] | 23% | 33.3% | –
CCOC(=O)c1cnc2n(c1=O)-c1ccccc1N(C(=O)c1ccccc1)C2 [Example 6, ethyl 6-benzoyl-1-oxo-5,6-dihydro-1H-pyrimido [1,2,-a] quinoxaline-2-carboxylate] | 23% | 43% | –
CCOC(=O)c1cnc2n(c1=O)-c1ccccc1N(C(=O)CC)C2 [Example 7] | 8.2% | 5.8% | –
CCOC(=O)c1cnc2n(c1=O)-c1ccccc1N(C(=O)C1CCCC1)C2 [Example 8] | 5.4% | 14.8% | –
CCOC(=O)c1cnc2n(c1=O)-c1ccccc1N(C=O)C2 [Example 13, Ethyl 5,6-dihydro-6-formyl-1-oxo-1H-pyrimido [1,2-a]quinoxaline-2-carboxylate] | 4.1% | 12.4% | 0.6%
CCOC(=O)c1cnc2n(c1=O)-c1ccccc1N(C(=O)Nc1ccccc1)C2 [Example 14, Ethyl 5,6-dihydro-1-oxo-6-phenylcarbamoyl-1H-pyrimido [1,2-a] quinoxaline-2-carboxylate] | 17.6% | 15.2% | –
CCOC(=O)c1cnc2n(c1=O)-c1ccccc1N(C)C2 [Example 15, Ethyl 5,6-dihydro-6-methyl-1-oxo-1H-pyrimido [1,2-a] quinoxaline-2-carboxylate] | 7.7% | 30.2% | 7.7%
